What follows are compounds tested against human GPR43 (Homo sapiens (Human), UniProt O15552) (assay: Ca-Flux functional assay: determination of agonist/positive allosteric modulator (PAM) activity). Details: CHO-K1 Gα16 cells stably expressing human GPR43; compound added with EC20 sodium acetate; intracellular Ca2+ by FLIPR; does not distinguish agonist from PAM.
Assay type: cell-based
Summary of the method: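 CHO-K1 Gα16 cells stably expressing human GPR43, loaded with Calcium 5 dye 1 h; compounds (10-point half-log from 10 μM) added with sodium acetate at EC20. FLIPR calcium signal gave EC50, two wells per point; agonists and PAMs not distinguished.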

Sequence of human GPR43 (O15552 whole entry): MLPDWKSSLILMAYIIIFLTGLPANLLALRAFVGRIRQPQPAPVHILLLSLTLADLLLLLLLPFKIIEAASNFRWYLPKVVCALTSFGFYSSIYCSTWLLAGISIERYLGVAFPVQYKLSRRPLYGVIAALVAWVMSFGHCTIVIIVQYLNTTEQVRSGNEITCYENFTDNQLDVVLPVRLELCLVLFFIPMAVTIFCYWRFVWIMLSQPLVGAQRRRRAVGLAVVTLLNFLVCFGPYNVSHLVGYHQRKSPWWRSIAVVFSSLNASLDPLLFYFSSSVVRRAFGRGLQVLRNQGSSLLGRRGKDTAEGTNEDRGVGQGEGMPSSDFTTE

EC50	SMILES
1 nM	Cc1nc(N2CCO[C@@H](CF)C2)c2[nH]c(N)c(S(=O)(=O)c3ccccc3F)c2n1 [Example 299, 7-(2-fluorobenzenesulfonyl)-4-[(2R)-2-(fluoromethyl)morpholin-4-yl]-2-methyl-5H-pyrrolo[3,2-d]pyrimidin-6-amine]
288 nM	Nc1[nH]c2cc(C3=CCCCC3)cnc2c1S(=O)(=O)c1ccccc1 [Example 25, 3-(benzenesulfonyl)-6-(cyclohex-1-en-1-yl)-1H-pyrrolo[3,2-b]pyridin-2-amine]
141 nM	C[C@@H](Oc1ncnc2c(S(=O)(=O)c3ccccc3)c(N)[nH]c12)c1ccccn1 [Example 162, 7-(benzenesulfonyl)-4-[(1R)-1-(pyridin-2-yl)ethoxy]-5H-pyrrolo[3,2-d]pyrimidin-6-amine]
31 nM	CC[C@@H](C)Oc1nc(C)nc2c(S(=O)(=O)c3ccccc3)c(N)[nH]c12 [Example 244, 7-(benzenesulfonyl)-4-[(2R)-butan-2-yloxy]-2-methyl-5H-pyrrolo[3,2-d]pyrimidin-6-amine]
59 nM	Cc1ccc(-c2ncnc3c(S(=O)(=O)c4ccccc4)c(N)[nH]c23)cc1 [Example 104, 7-(benzenesulfonyl)-4-(4-methylphenyl)-5H-pyrrolo[3,2-d]pyrimidin-6-amine]
131 nM	Nc1[nH]c2c(OCC3CC3)ncnc2c1S(=O)(=O)c1ccccc1 [Example 55, 7-(benzenesulfonyl)-4-(cyclopropylmethoxy)-5H-pyrrolo[3,2-d]pyrimidin-6-amine]
22 nM	CCC(CC)Oc1nc(C)nc2c(S(=O)(=O)c3ccccc3)c(N)[nH]c12 [Example 248, 7-(benzenesulfonyl)-2-methyl-4-(pentan-3-yloxy)-5H-pyrrolo[3,2-d]pyrimidin-6-amine]
32 nM	Cc1nc(N2CCCC(C)C2)c2[nH]c(N)c(S(=O)(=O)c3ccccc3)c2n1 (centres unmarked) [Example 110, 7-(benzenesulfonyl)-2-methyl-4-(3-methylpiperidin-1-yl)-5H-pyrrolo[3,2-d]pyrimidin-6-amine]
628 nM	Nc1[nH]c2c(Br)cncc2c1S(=O)(=O)c1ccccc1 [Example 77, 3-(benzenesulfonyl)-7-bromo-1H-pyrrolo[3,2-c]pyridin-2-amine]
57 nM	Cc1nc(OCC2CC2(C)C)c2[nH]c(N)c(S(=O)(=O)c3ccccc3)c2n1 (centres unmarked) [Example 245, 7-(benzenesulfonyl)-4-[(2,2-dimethylcyclopropyl)methoxy]-2-methyl-5H-pyrrolo[3,2-d]pyrimidin-6-amine]
270 nM	Cc1nc(N(C)C(C)C)c2[nH]c(N)c(S(=O)(=O)c3cccc(F)c3)c2n1 [Example 193, 7-(3-fluorobenzenesulfonyl)-2,4-N-dimethyl-4-N-(propan-2-yl)-5H-pyrrolo[3,2-d]pyrimidine-4,6-diamine]
10 nM	CCC1CN(c2ncnc3c(S(=O)(=O)c4ccccc4)c(N)[nH]c23)CCS1 (centres unmarked) [Example 196, 7-(benzenesulfonyl)-4-(2-ethylthiomorpholin-4-yl)-5H-pyrrolo[3,2-d]pyrimidin-6-amine]
9 nM	Cc1nc(Nc2ccc(Cl)cc2)c2[nH]c(N)c(S(=O)(=O)c3ccccc3F)c2n1 [Example 300, N4-(4-chlorophenyl)-7-(2-fluorobenzenesulfonyl)-2-methyl-5H-pyrrolo[3,2-d]pyrimidine-4,6-diamine]
3470 nM	Nc1[nH]c2c(C3=CCCCC3)ncnc2c1S(=O)(=O)C1CCOCC1 [Example 61, 4-(cyclohex-1-en-1-yl)-7-(oxane-4-sulfonyl)-5H-pyrrolo[3,2-d]pyrimidin-6-amine]
9 nM	CSc1nc(N2CCOC(C)C2)c2[nH]c(N)c(S(=O)(=O)c3ccccc3F)c2n1 (centres unmarked) [Example 269, 7-(2-fluorobenzenesulfonyl)-4-(2-methylmorpholin-4-yl)-2-(methylsulfanyl)-5H-pyrrolo[3,2-d]pyrimidin-6-amine]
18 nM	Nc1[nH]c2c(N3CCOC4(CCCC4)C3)ncnc2c1S(=O)(=O)c1ccccc1 [Example 102, 7-(benzenesulfonyl)-4-{6-oxa-9-azaspiro[4.5]decan-9-yl}-5H-pyrrolo[3,2-d]pyrimidin-6-amine]
42 nM	CC1CN(c2ncnc3c(Sc4ccccc4)c(N)[nH]c23)CCO1 (centres unmarked) [Example 236, 4-(2-methylmorpholin-4-yl)-7-(phenylsulfanyl)-5H-pyrrolo[3,2-d]pyrimidin-6-amine]
2960 nM	Nc1[nH]c2c(OCC3CCOC3)ncnc2c1S(=O)(=O)c1ccccc1 (centres unmarked) [Example 119, 7-(benzenesulfonyl)-4-(oxolan-3-ylmethoxy)-5H-pyrrolo[3,2-d]pyrimidin-6-amine]
22 nM	Cc1nc(OC(C)C2CC2)c2[nH]c(N)c(S(=O)(=O)c3ccccc3)c2n1 (centres unmarked) [Example 230, 7-(benzenesulfonyl)-4-(1-cyclopropylethoxy)-2-methyl-5H-pyrrolo[3,2-d]pyrimidin-6-amine]

EC50	SMILES
330 nM	Nc1[nH]c2c(C3CCC(F)(F)CC3)ncnc2c1S(=O)(=O)c1ccccc1 [Example 155, 7-(benzenesulfonyl)-4-(4,4-difluorocyclohexyl)-5H-pyrrolo[3,2-d]pyrimidin-6-amine]
89 nM	Nc1[nH]c2c(N3CCCC(F)(F)C3)ncnc2c1S(=O)(=O)c1ccccc1 [Example 34, 7-(benzenesulfonyl)-4-(3,3-difluoropiperidin-1-yl)-5H-pyrrolo[3,2-d]pyrimidin-6-amine]
16 nM	Cc1nc(N2CCO[C@H](C)[C@H]2C)c2[nH]c(N)c(S(=O)(=O)c3ccccc3F)c2n1 [Example 276, 4-[(RR,SS)-2,3-dimethylmorpholin-4-yl]-7-(2-fluorobenzenesulfonyl)-2-methyl-5H-pyrrolo[3,2-d]pyrimidin-6-amine]
21 nM	Cc1nc(N2C[C@H](C)OC[C@@H]2C)c2[nH]c(N)c(S(=O)(=O)c3ccccc3)c2n1 [Example 220, 7-(benzenesulfonyl)-4-[(2S,5S)-2,5-dimethylmorpholin-4-yl]-2-methyl-5H-pyrrolo[3,2-d]pyrimidin-6-amine]
3170 nM	Nc1[nH]c2c(-c3cccnc3)ncnc2c1S(=O)(=O)c1ccccc1 [Example 67, 7-(benzenesulfonyl)-4-(pyridin-3-yl)-5H-pyrrolo[3,2-d]pyrimidin-6-amine]
2 nM	Cc1nc(N2CCO[C@H](C(F)(F)F)C2)c2[nH]c(N)c(S(=O)(=O)c3ccc(Cl)cc3F)c2n1 [Example 284, 7-(4-chloro-2-fluorobenzenesulfonyl)-2-methyl-4-[(2S)-2-(trifluoromethyl)morpholin-4-yl]-5H-pyrrolo[3,2-d]pyrimidin-6-amine]
21 nM	Nc1[nH]c2c(C3=CCCCC3)ncnc2c1S(=O)(=O)c1ccccc1 [Example 2, 7-(benzenesulfonyl)-4-(cyclohex-1-en-1-yl)-5H-pyrrolo[3,2-d]pyrimidin-6-amine]
17 nM	CC1CN(c2nc(N(C)C)nc3c(S(=O)(=O)c4ccccc4F)c(N)[nH]c23)CCO1 (centres unmarked) [Example 270, 7-(2-fluorobenzenesulfonyl)-2-N,2-N-dimethyl-4-(2-methylmorpholin-4-yl)-5H-pyrrolo[3,2-d]pyrimidine-2,6-diamine]
7 nM	Cc1nc(N2C[C@H](C)OC[C@@H]2C)c2[nH]c(N)c(S(=O)(=O)c3ccccc3F)c2n1 [Example 223, 4-[(2S,5S)-2,5-dimethylmorpholin-4-yl]-7-(2-fluorobenzenesulfonyl)-2-methyl-5H-pyrrolo[3,2-d]pyrimidin-6-amine]
49 nM	CC1CCCCN1c1ncnc2c(S(=O)(=O)c3ccccc3)c(N)[nH]c12 (centres unmarked) [Example 69, 7-(benzenesulfonyl)-4-(2-methylpiperidin-1-yl)-5H-pyrrolo[3,2-d]pyrimidin-6-amine]
18 nM	Nc1[nH]c2c(N3CCC(F)(F)CC3)ccnc2c1S(=O)(=O)c1ccccc1 [Example 219, 3-(benzenesulfonyl)-7-(4,4-difluoropiperidin-1-yl)-1H-pyrrolo[3,2-b]pyridin-2-amine]
8 nM	Cc1nc(OC(C)C(F)(F)F)c2[nH]c(N)c(S(=O)(=O)c3ccccc3F)c2n1 (centres unmarked) [Example 274, 7-(2-fluorobenzenesulfonyl)-2-methyl-4-[(1,1,1-trifluoropropan-2-yl)oxy]-5H-pyrrolo[3,2-d]pyrimidin-6-amine]
13 nM	Cc1nc(N2CCO[C@@H](C)C2)c2[nH]c(N)c(S(=O)(=O)c3ccccc3)c2n1 [Example 226, 7-(benzenesulfonyl)-2-methyl-4-[(2S)-2-methylmorpholin-4-yl]-5H-pyrrolo[3,2-d]pyrimidin-6-amine]
14 nM	C[C@@H]1CN(c2ncnc3c(S(=O)(=O)c4ccccc4)c(N)[nH]c23)C[C@H](C)O1 [Example 75, 7-(benzenesulfonyl)-4-[(2R,6S)-2,6-dimethylmorpholin-4-yl]-5H-pyrrolo[3,2-d]pyrimidin-6-amine]
89 nM	Nc1[nH]c2c(C3CCCCC3)ncnc2c1S(=O)(=O)c1ccc(F)cc1 [Example 27, 4-cyclohexyl-7-[(4-fluorobenzene)sulfonyl]-5H-pyrrolo[3,2-d]pyrimidin-6-amine]
36 nM	CCC1(CC)CN(c2ncnc3c(S(=O)(=O)c4ccccc4)c(N)[nH]c23)CCO1 [Example 103, 7-(benzenesulfonyl)-4-(2,2-diethylmorpholin-4-yl)-5H-pyrrolo[3,2-d]pyrimidin-6-amine]
173 nM	COc1ccc(S(=O)(=O)c2c(N)[nH]c3c(C4CCCCC4)ncnc23)cn1 [Example 44, 4-cyclohexyl-7-(6-methoxypyridine-3-sulfonyl)-5H-pyrrolo[3,2-d]pyrimidin-6-amine]
100 nM	Cc1nc(OC2CCCC2)c2[nH]c(N)c(S(=O)(=O)c3ccccc3)c2n1 [Example 257, 7-(benzenesulfonyl)-4-(cyclopentyloxy)-2-methyl-5H-pyrrolo[3,2-d]pyrimidin-6-amine]
25 nM	Cc1nc(N2C[C@@H](C)O[C@H](C)C2)c2[nH]c(N)c(S(=O)(=O)c3cccc(F)c3)c2n1 [Example 200, 4-[(2R,6R)-2,6-dimethylmorpholin-4-yl]-7-(3-fluorobenzenesulfonyl)-2-methyl-5H-pyrrolo[3,2-d]pyrimidin-6-amine]

From patent US10059713B2 (Takeda Pharmaceutical Company Limited, priority 2014, dated 2018)
